Five compounds from patent US11149035B2, “Chemical compounds as H—PGDS inhibitors” (GlaxoSmithKline Intellectual Property Development Limited, priority 2017, dated 2021) can be followed below.

For this experiment, the target named is T1, haematopoietic prostaglandin D synthase (H-PGDS) (Homo sapiens, UniProt O60760).
T1 construct: Full length human H-PGDS cDNA (Invitrogen Ultimate ORF IOH13026) was amplified by PCR; 6-His (N); TEV protease cleavage site (N); made in house; host or cells: E. coli BL21 (DE3*)
Description: H-PGDS RapidFire high throughput mass spectrometry assay (conversion of PGH2 to PGD2). The class given is biochemical. The settings on record: 10 nM H-PGDS, PGH2 formed in situ by COX-2 from arachidonic acid; four parameter curve fit; read-out: Potency Range (mean pIC50) (converted). The gist of the method:
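His-tagged full-length human H-PGDS from E. coli converts PGH2, generated in situ at ~10 μM from arachidonic acid by FLAG-tagged human COX-2 from Sf9 cells. RapidFire SPE-triple quadrupole MS measures PGD2 against PGF2α as substrate surrogate; percent conversion is calculated.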

T1 sequence (O60760 whole entry): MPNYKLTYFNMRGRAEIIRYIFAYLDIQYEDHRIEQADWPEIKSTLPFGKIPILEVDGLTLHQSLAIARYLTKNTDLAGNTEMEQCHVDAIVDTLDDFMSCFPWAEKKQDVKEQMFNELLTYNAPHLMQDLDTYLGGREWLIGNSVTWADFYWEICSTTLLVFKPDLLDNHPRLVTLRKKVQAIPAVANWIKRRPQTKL

`C[C@H]1CCN1c1nc2ncc(C(=O)N[C@H]3C[C@](C)(O)C3)cc2cc1Cl` [Example 64, 6-Chloro-N-((1r,3S)-3-hydroxy-3-methylcyclobutyl)-7-((S)-2-methylazetidin-1-yl)-1,8-naphthyridine-3-carboxamide]: the IC50 is under 10 nM.
Turning to `O=C(N[C@H]1C[C@H](N[C@H](CO)C(F)(F)F)C1)c1cnc2cc(C3CC3)ncc2c1` [Example 43, 7-Cyclopropyl-N-(trans-3-(((R)-1,1,1-trifluoro-3-hydroxypropan-2-yl)amino)cyclobutyl)-1,6-naphthyridine-3-carboxamide], the IC50 was 100 to 1000 nM.
The figure for `O=C(N[C@H]1CC[C@@](O)(C(F)F)CC1)c1cnc2cc(C3CC3)ncc2c1` [Example 33, 7-Cyclopropyl-N-((1r,4r)-4-(difluoromethyl)-4-hydroxycyclohexyl)-1,6-naphthyridine-3-carboxamide] is 100 to 1000 nM; for `C[C@]1(O)C[C@@H](NC(=O)c2cnc3nc(C4CC4)ccc3c2)C1` [Example 45, 7-Cyclopropyl-N-((1s,3s)-3-hydroxy-3-methylcyclobutyl)-1,8-naphthyridine-3-carboxamide] it is 100 to 1000 nM; for `C[C@]1(O)CC[C@H](NC(=O)c2cnc3nc(C4CC4)c(Cl)cc3c2)CC1` [Example 74, 6-Chloro-7-cyclopropyl-N-((1r,4r)-4-hydroxy-4-methylcyclohexyl)-1,8-naphthyridine-3-carboxamide ethyl acetate solvate] it is under 10 nM.
